Experimental data reported in publication PMC6757289, “Design and Characterization of SGK3-PROTAC1, an Isoform Specific SGK3 Kinase PROTAC Degrader” (ACS Chemical Biology, 2019).
Where two headings read alike, the source gives them in different places.

Legend:
Experiment in all cases: kinase profiling panel
Format in all cases: biochemical
[1] = target: T1, DDR2 (Homo sapiens, UniProt Q16832); details: read-out: % Activity Remaining
T1 sequence (Q16832 22-855): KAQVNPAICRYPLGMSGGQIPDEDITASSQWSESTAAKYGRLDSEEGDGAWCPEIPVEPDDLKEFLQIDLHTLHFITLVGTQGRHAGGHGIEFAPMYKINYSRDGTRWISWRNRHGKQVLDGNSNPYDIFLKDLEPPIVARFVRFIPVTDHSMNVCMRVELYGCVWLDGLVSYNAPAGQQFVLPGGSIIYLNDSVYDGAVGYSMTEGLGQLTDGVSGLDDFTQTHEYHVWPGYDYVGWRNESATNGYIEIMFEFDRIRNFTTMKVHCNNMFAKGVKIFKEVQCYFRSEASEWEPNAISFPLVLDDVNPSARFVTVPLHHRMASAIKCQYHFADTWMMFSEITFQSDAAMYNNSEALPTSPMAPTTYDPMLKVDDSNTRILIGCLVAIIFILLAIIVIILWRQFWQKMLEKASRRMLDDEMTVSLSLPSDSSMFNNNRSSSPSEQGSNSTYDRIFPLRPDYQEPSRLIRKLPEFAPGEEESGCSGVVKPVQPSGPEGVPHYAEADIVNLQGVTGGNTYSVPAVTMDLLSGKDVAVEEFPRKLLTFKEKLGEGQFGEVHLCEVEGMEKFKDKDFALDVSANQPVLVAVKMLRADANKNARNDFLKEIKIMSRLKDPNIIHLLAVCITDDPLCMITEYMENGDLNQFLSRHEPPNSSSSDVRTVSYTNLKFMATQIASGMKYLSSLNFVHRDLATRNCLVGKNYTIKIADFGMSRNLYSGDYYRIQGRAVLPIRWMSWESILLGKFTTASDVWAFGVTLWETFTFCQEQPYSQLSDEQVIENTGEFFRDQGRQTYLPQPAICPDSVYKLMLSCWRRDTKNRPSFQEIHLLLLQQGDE
Description: (§1) Protein kinase profiling against a Dundee panel of 140 protein kinases was undertaken at the International Centre for Protein Kinase Profiling. The result for each kinase was presented as a mean kinase activity of the reaction taken in triplicate relative to a control sample treated with DMSO. Assay conditions and abbreviations are available at http://www.kinase-screen.mrc.ac.uk.

[2] = target: HIPK3 (Homo sapiens, UniProt Q9H422); details: read-out: % Activity Remaining
Description: as §1

[3] = target: MARK1 (Homo sapiens, UniProt Q9P0L2); details: read-out: % Activity Remaining
Description: as §1

[4] = target: T2, MARK4 (Homo sapiens, UniProt Q96L34); details: read-out: % Activity Remaining
T2 sequence (Q96L34 1-752): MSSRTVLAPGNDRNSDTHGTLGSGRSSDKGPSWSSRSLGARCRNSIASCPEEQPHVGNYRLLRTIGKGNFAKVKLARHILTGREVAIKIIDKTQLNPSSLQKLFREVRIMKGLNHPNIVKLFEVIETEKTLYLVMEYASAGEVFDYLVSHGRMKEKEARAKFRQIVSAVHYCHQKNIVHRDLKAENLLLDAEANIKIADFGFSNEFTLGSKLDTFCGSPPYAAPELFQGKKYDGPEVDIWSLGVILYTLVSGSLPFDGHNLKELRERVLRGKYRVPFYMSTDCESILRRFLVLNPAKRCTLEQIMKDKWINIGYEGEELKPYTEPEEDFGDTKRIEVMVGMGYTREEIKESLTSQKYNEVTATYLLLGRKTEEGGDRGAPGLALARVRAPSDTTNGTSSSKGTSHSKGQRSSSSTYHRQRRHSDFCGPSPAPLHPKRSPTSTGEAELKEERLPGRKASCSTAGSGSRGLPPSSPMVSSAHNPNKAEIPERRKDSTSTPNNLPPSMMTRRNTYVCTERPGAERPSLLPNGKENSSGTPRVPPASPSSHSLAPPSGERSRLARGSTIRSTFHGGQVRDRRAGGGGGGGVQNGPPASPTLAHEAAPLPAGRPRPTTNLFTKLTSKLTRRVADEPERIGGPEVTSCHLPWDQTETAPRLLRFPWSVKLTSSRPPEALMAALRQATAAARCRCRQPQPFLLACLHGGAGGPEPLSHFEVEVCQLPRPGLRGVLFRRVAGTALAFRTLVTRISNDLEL
Description: as §1

[5] = target: MST4 (Homo sapiens, UniProt Q9P289); details: read-out: % Activity Remaining
Description: as §1

[6] = target: OSR1 (Homo sapiens, UniProt O95747); details: read-out: % Activity Remaining
Description: as §1

[7] = target: T3, SGK1 (Homo sapiens, UniProt O00141); details: read-out: % Activity Remaining
T3 sequence (O00141 1-431): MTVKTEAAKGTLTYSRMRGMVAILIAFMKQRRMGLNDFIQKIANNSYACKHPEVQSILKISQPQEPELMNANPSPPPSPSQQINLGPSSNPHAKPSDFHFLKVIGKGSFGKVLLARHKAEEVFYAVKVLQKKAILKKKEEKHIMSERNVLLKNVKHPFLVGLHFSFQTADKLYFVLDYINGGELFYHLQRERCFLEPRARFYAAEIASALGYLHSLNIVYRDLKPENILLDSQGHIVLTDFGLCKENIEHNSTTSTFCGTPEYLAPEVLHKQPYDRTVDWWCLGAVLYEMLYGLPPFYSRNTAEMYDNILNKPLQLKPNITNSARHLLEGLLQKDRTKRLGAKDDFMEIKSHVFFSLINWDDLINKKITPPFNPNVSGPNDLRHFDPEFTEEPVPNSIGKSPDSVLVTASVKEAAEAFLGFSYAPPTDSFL
Description: as §1

[8] = target: SIK3 (Homo sapiens, UniProt Q9Y2K2); details: read-out: % Activity Remaining
Description: as §1

[9] = target: STK33 (Homo sapiens, UniProt Q9BYT3)
Description: as §1

[10] = target: VEGFR1 (Homo sapiens, UniProt P17948); details: read-out: % Activity Remaining
Description: as §1

OSR1, sequence (O95747 whole entry): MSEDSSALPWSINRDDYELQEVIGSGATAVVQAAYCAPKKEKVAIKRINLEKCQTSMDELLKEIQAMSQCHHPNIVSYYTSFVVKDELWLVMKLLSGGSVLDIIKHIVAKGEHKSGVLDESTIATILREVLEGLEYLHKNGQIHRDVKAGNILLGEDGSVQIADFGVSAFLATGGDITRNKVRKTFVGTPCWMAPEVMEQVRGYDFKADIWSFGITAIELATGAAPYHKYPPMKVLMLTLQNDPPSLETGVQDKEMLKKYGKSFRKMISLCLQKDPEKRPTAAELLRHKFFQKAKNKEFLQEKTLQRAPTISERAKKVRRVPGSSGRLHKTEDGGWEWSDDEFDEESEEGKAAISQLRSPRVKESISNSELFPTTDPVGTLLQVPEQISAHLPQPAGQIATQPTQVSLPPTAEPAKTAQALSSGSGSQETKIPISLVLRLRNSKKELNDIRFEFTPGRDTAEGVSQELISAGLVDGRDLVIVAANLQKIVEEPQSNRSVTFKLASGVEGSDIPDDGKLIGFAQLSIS
STK33, sequence (Q9BYT3 whole entry): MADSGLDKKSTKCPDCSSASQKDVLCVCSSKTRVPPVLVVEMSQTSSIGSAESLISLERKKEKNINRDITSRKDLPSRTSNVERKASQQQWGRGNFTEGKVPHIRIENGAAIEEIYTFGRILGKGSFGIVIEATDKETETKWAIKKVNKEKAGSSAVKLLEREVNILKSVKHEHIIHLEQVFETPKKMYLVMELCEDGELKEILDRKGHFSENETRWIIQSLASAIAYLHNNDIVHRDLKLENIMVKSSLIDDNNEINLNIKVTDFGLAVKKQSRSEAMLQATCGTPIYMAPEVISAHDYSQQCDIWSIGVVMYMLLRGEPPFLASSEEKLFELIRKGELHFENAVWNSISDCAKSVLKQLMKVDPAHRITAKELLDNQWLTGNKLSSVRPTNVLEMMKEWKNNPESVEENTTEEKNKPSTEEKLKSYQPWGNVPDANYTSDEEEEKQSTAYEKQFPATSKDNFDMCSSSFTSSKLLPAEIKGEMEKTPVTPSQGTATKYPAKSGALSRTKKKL
HIPK3, sequence (Q9H422 whole entry): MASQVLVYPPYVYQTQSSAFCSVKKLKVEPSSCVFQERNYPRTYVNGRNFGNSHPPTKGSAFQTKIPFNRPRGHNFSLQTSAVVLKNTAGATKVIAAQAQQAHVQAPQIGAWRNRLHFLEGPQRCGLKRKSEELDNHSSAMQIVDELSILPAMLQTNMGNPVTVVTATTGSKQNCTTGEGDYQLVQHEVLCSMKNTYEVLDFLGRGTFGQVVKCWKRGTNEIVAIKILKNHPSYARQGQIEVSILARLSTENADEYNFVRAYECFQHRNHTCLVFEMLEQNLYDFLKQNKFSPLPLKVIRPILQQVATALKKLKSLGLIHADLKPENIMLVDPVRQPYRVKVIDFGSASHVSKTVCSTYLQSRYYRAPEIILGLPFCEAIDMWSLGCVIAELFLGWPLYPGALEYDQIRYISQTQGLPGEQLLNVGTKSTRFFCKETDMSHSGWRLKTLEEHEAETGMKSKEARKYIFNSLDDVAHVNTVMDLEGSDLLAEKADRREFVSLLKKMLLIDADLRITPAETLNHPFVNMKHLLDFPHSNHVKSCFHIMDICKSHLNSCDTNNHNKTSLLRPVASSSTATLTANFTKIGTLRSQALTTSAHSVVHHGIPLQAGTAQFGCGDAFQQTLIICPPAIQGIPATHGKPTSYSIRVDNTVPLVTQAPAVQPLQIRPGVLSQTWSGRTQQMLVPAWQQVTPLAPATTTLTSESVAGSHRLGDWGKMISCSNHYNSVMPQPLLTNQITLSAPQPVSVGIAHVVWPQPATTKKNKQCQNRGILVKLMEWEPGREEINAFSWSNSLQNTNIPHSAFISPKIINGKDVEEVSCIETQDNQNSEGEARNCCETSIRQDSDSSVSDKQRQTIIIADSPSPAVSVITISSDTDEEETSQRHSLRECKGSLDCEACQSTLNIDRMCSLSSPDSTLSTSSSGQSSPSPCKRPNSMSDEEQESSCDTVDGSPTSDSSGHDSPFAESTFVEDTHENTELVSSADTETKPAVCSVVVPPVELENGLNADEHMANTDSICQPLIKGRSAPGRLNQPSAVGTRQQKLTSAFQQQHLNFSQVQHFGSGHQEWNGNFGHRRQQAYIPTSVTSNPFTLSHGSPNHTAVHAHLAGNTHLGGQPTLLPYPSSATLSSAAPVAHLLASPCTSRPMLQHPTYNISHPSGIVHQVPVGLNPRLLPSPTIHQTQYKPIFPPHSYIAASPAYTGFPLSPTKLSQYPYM
SIK3, sequence (Q9Y2K2 whole entry): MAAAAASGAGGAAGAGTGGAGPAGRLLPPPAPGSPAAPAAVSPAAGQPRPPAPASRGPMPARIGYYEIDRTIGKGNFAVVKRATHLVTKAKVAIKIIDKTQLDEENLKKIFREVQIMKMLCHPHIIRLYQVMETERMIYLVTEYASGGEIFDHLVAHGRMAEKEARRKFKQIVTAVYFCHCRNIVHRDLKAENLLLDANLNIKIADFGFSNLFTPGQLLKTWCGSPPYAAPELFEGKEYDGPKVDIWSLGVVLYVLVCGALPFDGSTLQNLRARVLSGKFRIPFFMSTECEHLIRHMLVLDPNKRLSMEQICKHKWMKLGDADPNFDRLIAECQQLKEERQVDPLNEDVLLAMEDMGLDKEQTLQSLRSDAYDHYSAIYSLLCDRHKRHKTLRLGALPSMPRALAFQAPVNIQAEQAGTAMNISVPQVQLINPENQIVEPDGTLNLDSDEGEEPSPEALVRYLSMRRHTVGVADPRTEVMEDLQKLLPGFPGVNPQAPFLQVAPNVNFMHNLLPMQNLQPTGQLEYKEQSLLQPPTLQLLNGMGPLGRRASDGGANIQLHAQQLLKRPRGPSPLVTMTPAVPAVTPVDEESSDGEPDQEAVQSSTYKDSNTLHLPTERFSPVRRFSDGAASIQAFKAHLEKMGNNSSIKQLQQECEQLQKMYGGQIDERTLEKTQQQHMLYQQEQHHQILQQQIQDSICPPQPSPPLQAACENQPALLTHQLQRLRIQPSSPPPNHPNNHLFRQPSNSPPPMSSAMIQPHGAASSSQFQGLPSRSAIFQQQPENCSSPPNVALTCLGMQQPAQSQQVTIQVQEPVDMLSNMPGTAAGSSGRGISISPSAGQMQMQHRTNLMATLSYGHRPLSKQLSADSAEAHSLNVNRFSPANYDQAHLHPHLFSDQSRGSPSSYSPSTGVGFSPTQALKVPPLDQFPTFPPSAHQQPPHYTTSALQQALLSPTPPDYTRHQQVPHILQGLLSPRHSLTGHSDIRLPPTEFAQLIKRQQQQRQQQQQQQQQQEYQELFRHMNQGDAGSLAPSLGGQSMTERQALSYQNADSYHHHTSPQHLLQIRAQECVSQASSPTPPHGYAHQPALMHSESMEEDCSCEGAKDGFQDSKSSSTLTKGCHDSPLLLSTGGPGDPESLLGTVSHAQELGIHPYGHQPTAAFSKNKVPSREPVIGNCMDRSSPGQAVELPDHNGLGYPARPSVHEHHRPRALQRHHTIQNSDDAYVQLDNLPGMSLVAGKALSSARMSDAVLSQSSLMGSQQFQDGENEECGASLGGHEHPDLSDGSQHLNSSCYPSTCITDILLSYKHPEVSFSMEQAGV
VEGFR1, sequence (P17948 27-1338): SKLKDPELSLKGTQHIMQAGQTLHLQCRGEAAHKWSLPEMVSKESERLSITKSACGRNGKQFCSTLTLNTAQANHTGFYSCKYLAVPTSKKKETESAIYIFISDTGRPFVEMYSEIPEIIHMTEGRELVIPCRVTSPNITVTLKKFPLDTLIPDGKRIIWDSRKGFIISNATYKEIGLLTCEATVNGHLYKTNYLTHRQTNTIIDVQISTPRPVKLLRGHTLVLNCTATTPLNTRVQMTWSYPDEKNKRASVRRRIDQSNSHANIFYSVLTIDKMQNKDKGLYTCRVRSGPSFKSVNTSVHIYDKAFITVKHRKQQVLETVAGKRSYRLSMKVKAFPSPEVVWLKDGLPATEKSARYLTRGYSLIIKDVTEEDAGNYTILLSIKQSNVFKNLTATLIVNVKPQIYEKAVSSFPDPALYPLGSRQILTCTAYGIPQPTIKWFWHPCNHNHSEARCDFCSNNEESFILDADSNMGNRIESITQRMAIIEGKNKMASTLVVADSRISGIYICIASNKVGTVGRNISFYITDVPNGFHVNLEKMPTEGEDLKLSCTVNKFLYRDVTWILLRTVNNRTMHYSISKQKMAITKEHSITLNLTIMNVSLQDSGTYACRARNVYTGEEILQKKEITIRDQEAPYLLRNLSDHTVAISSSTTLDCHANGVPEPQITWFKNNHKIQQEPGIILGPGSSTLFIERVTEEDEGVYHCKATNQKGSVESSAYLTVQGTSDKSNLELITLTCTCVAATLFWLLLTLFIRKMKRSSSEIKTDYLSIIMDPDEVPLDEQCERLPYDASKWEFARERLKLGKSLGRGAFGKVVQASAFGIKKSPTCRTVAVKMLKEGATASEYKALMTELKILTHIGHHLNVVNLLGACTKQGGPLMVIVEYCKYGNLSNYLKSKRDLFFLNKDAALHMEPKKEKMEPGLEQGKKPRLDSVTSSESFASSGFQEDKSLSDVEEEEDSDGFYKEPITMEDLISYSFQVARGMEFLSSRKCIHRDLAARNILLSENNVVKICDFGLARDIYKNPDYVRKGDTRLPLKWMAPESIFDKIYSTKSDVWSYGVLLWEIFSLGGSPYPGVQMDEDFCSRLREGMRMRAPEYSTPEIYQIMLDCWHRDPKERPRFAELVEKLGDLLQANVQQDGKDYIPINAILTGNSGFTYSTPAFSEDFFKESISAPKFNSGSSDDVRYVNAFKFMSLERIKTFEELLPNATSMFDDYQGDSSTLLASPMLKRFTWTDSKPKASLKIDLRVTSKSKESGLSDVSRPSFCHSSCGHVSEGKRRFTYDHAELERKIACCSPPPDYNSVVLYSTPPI

Structure (SMILES) | remaining activity at 1 µM [1] [%] | remaining activity at 1 µM [2] [%] | remaining activity at 1 µM [3] [%] | remaining activity at 1 µM [4] [%] | remaining activity at 1 µM [5] [%] | remaining activity at 1 µM [6] [%] | remaining activity at 1 µM [7] [%] | remaining activity at 1 µM [8] [%] | remaining activity at 1 µM [9] [%] | remaining activity at 1 µM [10] [%] | remaining activity at 1 µM ([1]; 1 µM) [%] | remaining activity at 1 µM ([2]; 1 µM) [%] | remaining activity at 1 µM ([3]; 1 µM) [%] | remaining activity at 1 µM ([4]; 1 µM) [%] | remaining activity at 1 µM ([5]; 1 µM) [%] | remaining activity at 1 µM ([6]; 1 µM) [%] | remaining activity at 1 µM ([7]; 1 µM) [%] | remaining activity at 1 µM ([8]; 1 µM) [%] | remaining activity at 1 µM ([10]; 1 µM) [%]
COc1ccc(Cl)c(S(=O)(=O)Nc2ccc(-c3nc(OC[C@H]4CNCCO4)c4c(C)n[nH]c4n3)cc2)c1 [290-R, reference compound] | 80 | 109 | 115 | 98 | 50 | 110 | 2 | 102 | 74 | 82 | – | – | – | – | – | – | – | – | –
Cc1ccc(F)c(S(=O)(=O)Nc2ccc(-c3nc(OC[C@H]4CNCCO4)c4cn[nH]c4n3)cc2)c1 [308-R, reference compound] | 106 | 44 | 109 | 73 | 98 | 75 | 10 | 69 | 36 | 95 | – | – | – | – | – | – | – | – | –
Cc1ccc(F)c(S(=O)(=O)Nc2ccc(-c3nc(OC[C@H]4CN(CCCCCCOCCOCCOCC(=O)N[C@H](C(=O)N5C[C@H](O)C[C@H]5C(=O)NCc5ccc(-c6scnc6C)cc5)C(C)(C)C)CCO4)c4cn[nH]c4n3)cc2)c1 [SGK3-PROTAC1] | – | – | – | – | – | – | – | – | 110 | – | 114 | 111 | 99 | 105 | 106 | 103 | 34 | 79 | 120
Cc1ccc(F)c(S(=O)(=O)Nc2ccc(-c3nc(OC[C@H]4CN(CCCCCCOCCOCCOCC(=O)N[C@H](C(=O)N5C[C@@H](O)C[C@H]5C(=O)NCc5ccc(-c6scnc6C)cc5)C(C)(C)C)CCO4)c4cn[nH]c4n3)cc2)c1 [cisSGK3-PROTAC1] | – | – | – | – | – | – | – | – | 109 | – | 134 | 105 | 93 | 100 | 99 | 118 | 51 | 117 | 103
